Measured values as given in article PMC8010095, “Discovery of novel antituberculosis agents among 3-phenyl-5-(1-phenyl-1H-[1,2,3]triazol-4-yl)-[1,2,4]oxadiazole derivatives targeting aminoacyl-tRNA synthetases” (Scientific Reports, 2021).
Read-outs that look alike come from different tables or passages of the source.

Columns and labels:
M. tuberculosis H37Rv = assay: microbe, parasite or virus in culture; assay type: cell-based; conditions: > 80% reduction in growth, screened at 20, 2 and 0.2 mg/L, 7H9 complete medium; for MIC: Mycobacterium tuberculosis, H37RV, read-out: Growth inhibition cutoff, H37Rv
[1] = tested on: Mycobacterium abscessus (ATCC 19,977); assay: microbe, parasite or virus in culture; assay type: cell-based; conditions: > 80% reduction in growth, screened at 20, 2 and 0.2 mg/L, 7H9 complete medium; for MIC: Mycobacteroides abscessus, ATCC19, read-out: Growth inhibition cutoff, M. abscessus 19,977
[2] = tested on: Mycobacterium avium (ATCC 700,891 MAC 101); assay: microbe, parasite or virus in culture; assay type: cell-based; conditions: > 80% reduction in growth, screened at 20, 2 and 0.2 mg/L, 7H9 complete medium; for MIC: Mycobacterium avium, ATCC700, read-out: Growth inhibition cutoff, M. avium 700,891 (MAC 101)
[3] = target: T1, M. tuberculosis leucyl-tRNA synthetase (LeuRS) (Mycobacterium tuberculosis, UniProt P9WFV1); assay: biochemical; assay type: biochemical; conditions: for IC50: mean ± s.d. (n = 3)
T1 construct: made in house; host or cells: Escherichia coli
T1 sequence (P9WFV1 whole entry): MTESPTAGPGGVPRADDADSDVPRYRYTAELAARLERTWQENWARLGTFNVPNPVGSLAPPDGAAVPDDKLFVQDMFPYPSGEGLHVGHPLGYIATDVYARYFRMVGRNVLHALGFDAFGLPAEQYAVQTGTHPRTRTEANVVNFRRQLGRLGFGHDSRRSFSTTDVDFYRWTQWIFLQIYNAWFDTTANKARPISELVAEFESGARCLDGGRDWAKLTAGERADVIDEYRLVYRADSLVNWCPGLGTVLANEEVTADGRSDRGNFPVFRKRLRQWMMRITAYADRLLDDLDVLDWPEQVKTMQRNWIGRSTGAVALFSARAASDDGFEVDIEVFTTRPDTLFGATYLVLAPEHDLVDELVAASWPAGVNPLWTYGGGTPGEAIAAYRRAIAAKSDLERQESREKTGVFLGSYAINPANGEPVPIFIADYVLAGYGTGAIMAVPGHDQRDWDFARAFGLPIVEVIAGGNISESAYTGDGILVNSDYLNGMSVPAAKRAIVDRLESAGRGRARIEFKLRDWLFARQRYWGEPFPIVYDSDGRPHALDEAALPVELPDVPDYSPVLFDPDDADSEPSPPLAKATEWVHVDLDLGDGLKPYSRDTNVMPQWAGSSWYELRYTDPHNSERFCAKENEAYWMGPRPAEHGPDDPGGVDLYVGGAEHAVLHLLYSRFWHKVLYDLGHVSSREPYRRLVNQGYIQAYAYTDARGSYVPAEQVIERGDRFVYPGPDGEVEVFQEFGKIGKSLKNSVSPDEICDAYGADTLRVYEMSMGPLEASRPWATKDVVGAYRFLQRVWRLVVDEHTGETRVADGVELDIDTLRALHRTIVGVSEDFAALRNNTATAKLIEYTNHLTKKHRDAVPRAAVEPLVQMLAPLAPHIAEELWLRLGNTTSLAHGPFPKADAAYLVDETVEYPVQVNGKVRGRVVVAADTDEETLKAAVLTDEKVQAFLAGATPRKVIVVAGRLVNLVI

[4] = target: T2, M. tuberculosis methionyl-tRNA synthetase (MetRS) (Mycobacterium tuberculosis, UniProt P9WFU5); assay: biochemical; assay type: biochemical; conditions: for IC50: mean ± s.d. (n = 3)
T2 construct: made in house; host or cells: Escherichia coli
T2 sequence (P9WFU5 whole entry): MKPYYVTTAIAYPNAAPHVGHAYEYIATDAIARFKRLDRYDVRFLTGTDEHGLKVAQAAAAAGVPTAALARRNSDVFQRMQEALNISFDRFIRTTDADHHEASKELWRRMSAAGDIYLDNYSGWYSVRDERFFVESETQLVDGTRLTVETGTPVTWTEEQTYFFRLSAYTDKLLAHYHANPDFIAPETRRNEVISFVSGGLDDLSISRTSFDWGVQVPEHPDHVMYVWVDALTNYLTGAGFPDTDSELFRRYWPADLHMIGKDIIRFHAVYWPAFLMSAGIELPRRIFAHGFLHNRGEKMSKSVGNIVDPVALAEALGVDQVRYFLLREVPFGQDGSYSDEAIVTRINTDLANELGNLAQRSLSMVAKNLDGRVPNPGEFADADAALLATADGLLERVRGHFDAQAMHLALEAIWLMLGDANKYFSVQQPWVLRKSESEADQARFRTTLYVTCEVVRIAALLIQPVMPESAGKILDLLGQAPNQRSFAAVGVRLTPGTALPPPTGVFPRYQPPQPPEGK

[5] = recombinant enzyme, mean ± spread (n in brackets), negative = activation

SMILES	Growth inhibition cutoff, H37Rv (M. tuberculosis H37Rv) [mg/L]	Growth inhibition cutoff, M. abscessus 19,977 [1] [mg/L]	Growth inhibition cutoff, M. avium 700,891 (MAC 101) [2] [mg/L]	LeuRS inhibition activity, % [3, 5]	MetRS inhibition activity, % [4, 5]	further results
Nc1c(-c2nc(-c3ccccc3)no2)nnn1-c1ccccc1F [Compound 1]	> 20	> 20	> 20			
COc1ccc(-c2noc(-c3nnn(-c4cc(Cl)ccc4OC)c3N)n2)cc1 [Compound 37]	> 20	> 20	> 20			
Nc1c(-c2nc(-c3ccc(Cl)cc3)no2)nnn1-c1ccc(Br)cc1F [Compound 31]	> 20	> 20	> 20	15 ± 11 (2) %	70 ± 19 (2) %	
COc1ccccc1-n1nnc(-c2nc(-c3ccc(Br)cc3)no2)c1N [Compound 35]	> 20	> 20	> 20		61 ± 47 (3) %	
CCc1ccc(-n2nnc(-c3nc(-c4ccc(F)cc4)no3)c2N)cc1 [Compound 14]	> 20	> 20	> 20	31 ± 7 (2) %	41 ± 10 (3) %	
Nc1c(-c2nc(-c3ccc(F)cc3)no2)nnn1-c1cccc(C(F)(F)F)c1 [Compound 19]	> 20	> 20	> 20		53 ± 0.7 (2) %	
Nc1c(-c2nc(-c3ccc(Br)cc3)no2)nnn1-c1cccc(F)c1 [Compound 33]	> 20	> 20	> 20		55 ± 4 (2) %	
CCOc1ccccc1-n1nnc(-c2nc(-c3ccc(F)cc3)no2)c1N [Compound 30]	> 20	> 20	> 20		19 ± 0.9 (2) %	
Cc1c(-c2nc(-c3ccccc3Cl)no2)nnn1-c1cccc(F)c1 [Compound 7]	> 20	> 20	> 20	71 ± 5 (2) %		
Nc1c(-c2nc(-c3ccc(F)cc3)no2)nnn1-c1ccc(F)cc1F [Compound 22]	> 20	> 20	> 20		59 ± 9 (2) %	
Nc1c(-c2nc(-c3ccc(F)cc3)no2)nnn1-c1ccc(Br)cc1 [Compound 11]	> 20	> 20	> 20			
CCOc1ccc(-c2noc(-c3nnn(-c4ccccc4Cl)c3N)n2)cc1 [Compound 40]	> 20	> 20	> 20	36 ± 16 (3) %	22 ± 14 (2) %	
COc1ccc(C)cc1-n1nnc(-c2nc(-c3ccc(F)cc3)no2)c1N [Compound 28]	> 20	> 20	> 20		37 ± 3 (2) %	
COc1ccc(-n2nnc(-c3nc(-c4ccc(F)cc4)no3)c2N)cc1OC [Compound 21]	> 20	> 20	> 20			
CCOc1ccc(-c2noc(-c3nnn(-c4ccc(F)c(Cl)c4)c3N)n2)cc1 [Compound 41]	> 20	> 20	> 20		59 ± 22 (2) %	
Nc1c(-c2nc(-c3ccc(Br)cc3)no2)nnn1-c1ccc(F)cc1 [Compound 32]	> 20	> 20	> 20		46 ± 32 (2) %	
Cc1c(-c2nc(-c3ccccc3F)no2)nnn1-c1ccc(F)c(Cl)c1 [Compound 4]	> 20	> 20	> 20	11 ± 8 (3) %		

SMILES	Growth inhibition cutoff, H37Rv (M. tuberculosis H37Rv) [mg/L]	Growth inhibition cutoff, M. abscessus 19,977 [1] [mg/L]	Growth inhibition cutoff, M. avium 700,891 (MAC 101) [2] [mg/L]	LeuRS inhibition activity, % [3, 5]	MetRS inhibition activity, % [4, 5]	further results
Cc1ccccc1-c1noc(-c2nnn(-c3ccc(Br)cc3)c2C)n1 [Compound 8]	> 20	> 20	> 20	18 ± 4 (2) %		
CCOc1ccccc1-n1nnc(-c2nc(-c3ccc(Br)cc3)no2)c1N [Compound 36]	> 20	> 20	> 20		25 ± 5 (2) %	
Nc1c(-c2nc(-c3ccc(F)cc3)no2)nnn1-c1ccccc1 [Compound 9]	> 20	> 20	> 20	1 ± 8 (2) %	30 ± 2 (2) %	
Nc1c(-c2nc(-c3ccc(F)cc3)no2)nnn1-c1cccc(Cl)c1 [Compound 16]	> 20	> 20	> 20		47 ± 19 (2) %	
Nc1c(-c2nc(-c3ccc(F)cc3)no2)nnn1-c1ccc(F)cc1 [Compound 12]	> 20	> 20	> 20	3 ± 7 (2) %	52 ± 6 (2) %	
Cc1c(-c2nc(-c3ccccc3F)no2)nnn1-c1cc(F)ccc1F [Compound 6]	> 20	> 20	> 20			
COc1ccccc1-n1nnc(-c2nc(-c3ccc(F)cc3)no2)c1N [Compound 26]	> 20	> 20	> 20			
COc1ccc(-n2nnc(-c3nc(-c4ccc(F)cc4)no3)c2N)cc1 [Compound 13]						MIC (M. tuberculosis H37Rv): > 20 µg/mL; MIC [1]: > 20 µg/mL; LeuRS inhibition activity, % [3]: 79 ± 7 (2) %; IC50 [3]: 263.5 ± 0.7 µM; MetRS inhibition activity, % [4]: 36 ± 5 (2) %; IC50 [4]: 122 ± 26 µM; MIC [2]: > 20 µg/mL
COc1cccc(-n2nnc(-c3nc(-c4ccc(F)cc4)no3)c2N)c1 [Compound 20]	> 20	> 20	> 20	29 ± 25 (2) %	37 ± 17 (3) %	
COc1ccc(-c2noc(-c3nnn(-c4ccc(Cl)cc4)c3C)n2)cc1OC [Compound 38]	> 20	> 20	> 20		25 ± 18 (2) %	
Nc1c(-c2nc(-c3ccccc3)no2)nnn1-c1ccc(C(F)(F)F)c(Cl)c1 [Compound 2]						MIC (M. tuberculosis H37Rv): > 20 µg/mL; MIC [1]: > 20 µg/mL; LeuRS inhibition activity, % [3]: 32 ± 19 (3) %; IC50 [3]: 76.5 ± 66 µM; MetRS inhibition activity, % [4]: 71 ± 29 (2) %; IC50 [4]: 115 ± 3 µM; MIC [2]: > 20 µg/mL
Nc1c(-c2nc(-c3ccc(F)cc3)no2)nnn1-c1ccc(Cl)cc1 [Compound 10]	> 20	> 20	> 20		23 ± 25 (3) %	
Nc1c(-c2nc(-c3ccc(F)cc3)no2)nnn1-c1cccc(F)c1 [Compound 15]	> 20	> 20	> 20			
CCOc1ccc(-c2noc(-c3nnn(-c4ccccc4F)c3N)n2)cc1 [Compound 39]	> 20	> 20	> 20		35 ± 6 (2) %	
Cc1c(-c2nc(-c3ccccc3F)no2)nnn1-c1ccc(Br)cc1 [Compound 5]	> 20	> 20	> 20	17 ± 10 (2) %		
COc1ccc(OC)c(-n2nnc(-c3nc(-c4ccc(F)cc4)no3)c2N)c1 [Compound 29]	> 20	> 20	> 20		14 ± 14 (2) %	
